Entries after “also recorded” stand apart in the source; their conditions may differ. Read-outs that look alike come from different tables or passages of the source.
Assays:
wild-type BTK = biological target: T1, wild-type BTK (Homo sapiens, UniProt Q06187); test: KdELECT competition binding, wild-type BTK
T1 construct: made in house; host or cells: transiently transfected HEK293 cells (unpurified extract)
Procedure: Using Eurofins Discovery’s KdELECT Kinase Assay Panel (San Diego, CA), we measured the ATP-independent in vitro binding affinity of the aforementioned BTK inhibitors to wild-type BTK.
(§1) Protein extracts were harvested in M-PER extraction buffer (Pierce Biotechnology, Rockford, IL) supplemented with 150 mM NaCl, 10 mM Dithiothreitol (DTT), Protease Inhibitor Cocktail Complete (Roche Diagnostics GmbH, Mannheim, Germany), and Phosphatase Inhibitor Cocktail Set II (Merck KGaA, Darmstadt, Germany) following the manufacturer’s guidelines. The fusion protein was labeled with a DNA tag containing the NFκB binding site fused to an amplicon for qPCR readout, which was added directly to the expression extract.
(§2) Kds were calculated using a standard dose–response curve fitting of the data using the Hill equation: Response = Background + (Signal – Background)/(1 + (Kd ^Hill Slope/Dose^Hill Slope). The Hill Slope was set to −1. A nonlinear least-square fit using the Levenberg–Marquardt algorithm was employed for curve fitting.

BTK C481S = biological target: T2, BTK C481S (Homo sapiens, UniProt Q06187, C481S); test: KdELECT competition binding, mutant BTK C481S
T2 construct: made in house; host or cells: transiently transfected HEK293 cells (unpurified extract)
T2 sequence (Q06187 whole entry C481S): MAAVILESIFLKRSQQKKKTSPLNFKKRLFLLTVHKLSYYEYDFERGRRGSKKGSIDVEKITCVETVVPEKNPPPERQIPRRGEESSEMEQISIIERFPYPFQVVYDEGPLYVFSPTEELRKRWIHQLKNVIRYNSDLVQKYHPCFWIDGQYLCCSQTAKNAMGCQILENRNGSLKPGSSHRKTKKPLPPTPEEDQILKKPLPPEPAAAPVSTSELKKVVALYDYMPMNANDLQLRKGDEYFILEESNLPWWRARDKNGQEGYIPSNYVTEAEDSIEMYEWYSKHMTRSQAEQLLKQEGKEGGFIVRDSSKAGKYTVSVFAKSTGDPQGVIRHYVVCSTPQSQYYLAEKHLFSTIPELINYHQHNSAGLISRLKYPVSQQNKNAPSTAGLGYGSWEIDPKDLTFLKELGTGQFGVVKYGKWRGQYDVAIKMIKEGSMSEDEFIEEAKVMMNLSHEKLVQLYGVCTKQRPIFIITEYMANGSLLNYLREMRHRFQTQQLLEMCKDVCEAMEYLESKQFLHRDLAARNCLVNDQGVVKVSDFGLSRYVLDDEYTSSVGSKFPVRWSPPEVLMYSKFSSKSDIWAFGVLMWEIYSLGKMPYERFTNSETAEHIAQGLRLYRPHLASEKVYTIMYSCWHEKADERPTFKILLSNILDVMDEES
Procedure: as §1, §2

BTK [1] = biological target: T3, BTK (Homo sapiens, UniProt Q06187); test: scanMAX binding POC, BTK; details: 1 μM; zero POC = competition comparable to positive control
T3 construct: host or cells: transiently transfected HEK293 cells
T3 sequence (Q06187 whole entry): as the sequence (Q06187 whole entry C481S) above, with S481C counted along it
Source text: (§3) Comprehensive Characterization of Bruton’s Tyrosine Kinase Inhibitor Specificity, Potency, and
(§4) Biological Effects: Insights into Covalent and Non-Covalent Mechanistic Signatures
(§5) Antonia C. Darragh1, Andrew M. Hanna1, Justin H. Lipner2, Alastair J. King2, Nicole B. Servant1, Mirza Jahic1*
(§6) *To whom correspondence should be addressed: Mirza Jahic, e-mail address: Mirza.Jahic@discovery.eurofinsus.com
(§7) Supporting Table S1. Comparison of BTK inhibitor specificity to TEC family members. TEC family members are
(§8) Burton’s tyrosine kinase (BTK), tyrosine kinase expressed in hepatocellular carcinoma (TEC), bone marrow-
(§9) expressed kinase (BMX/ETK), and T cell-expressed kinase (TXK/RLK), and interleukin-2-inducible T cell kinase
(§10) A zero POC signifies that the compound

BMX = biological target: T4, BMX (Homo sapiens, UniProt P51813); test: scanMAX binding POC, BMX; details: 1 μM
T4 sequence (P51813 1-675): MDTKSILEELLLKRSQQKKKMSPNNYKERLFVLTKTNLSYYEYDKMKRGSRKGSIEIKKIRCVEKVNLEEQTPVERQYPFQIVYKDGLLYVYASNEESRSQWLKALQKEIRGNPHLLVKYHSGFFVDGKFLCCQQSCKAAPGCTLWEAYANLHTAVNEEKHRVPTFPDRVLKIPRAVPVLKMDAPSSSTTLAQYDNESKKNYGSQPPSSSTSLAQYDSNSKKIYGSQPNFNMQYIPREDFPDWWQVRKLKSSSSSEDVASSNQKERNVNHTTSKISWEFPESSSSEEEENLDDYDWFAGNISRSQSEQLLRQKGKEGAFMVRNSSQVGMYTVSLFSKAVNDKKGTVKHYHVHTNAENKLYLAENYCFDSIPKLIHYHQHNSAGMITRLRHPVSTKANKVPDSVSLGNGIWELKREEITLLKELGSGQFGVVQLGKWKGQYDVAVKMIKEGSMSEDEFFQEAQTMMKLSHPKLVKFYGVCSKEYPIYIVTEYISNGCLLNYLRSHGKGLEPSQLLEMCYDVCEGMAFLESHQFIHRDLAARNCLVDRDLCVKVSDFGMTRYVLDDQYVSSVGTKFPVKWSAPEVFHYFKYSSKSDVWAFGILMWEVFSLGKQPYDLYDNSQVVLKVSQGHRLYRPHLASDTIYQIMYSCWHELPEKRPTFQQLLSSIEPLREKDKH
Source text: as §3, §4, §5, §6, §7, §8, §9, §10

BLK = BLK (Homo sapiens, UniProt P51451); test: scanMAX binding POC, BLK; details: 1 μM
Chain of BLK (P51451 whole entry): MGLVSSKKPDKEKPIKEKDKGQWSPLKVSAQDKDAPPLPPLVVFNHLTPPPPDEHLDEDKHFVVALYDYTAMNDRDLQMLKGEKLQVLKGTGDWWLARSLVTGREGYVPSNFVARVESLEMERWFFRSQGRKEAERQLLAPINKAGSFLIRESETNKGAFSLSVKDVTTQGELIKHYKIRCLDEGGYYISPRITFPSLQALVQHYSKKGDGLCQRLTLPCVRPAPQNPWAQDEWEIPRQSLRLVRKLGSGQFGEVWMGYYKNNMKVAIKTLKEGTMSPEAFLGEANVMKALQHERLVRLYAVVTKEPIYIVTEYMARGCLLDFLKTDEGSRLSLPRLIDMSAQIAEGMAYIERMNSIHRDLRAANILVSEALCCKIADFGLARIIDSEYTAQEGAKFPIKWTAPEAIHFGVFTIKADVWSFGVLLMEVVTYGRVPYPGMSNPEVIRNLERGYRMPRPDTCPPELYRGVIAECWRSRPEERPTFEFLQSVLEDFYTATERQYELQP

EGFR = EGFR (Homo sapiens, UniProt P00533); test: scanMAX binding POC, EGFR; details: 1 μM
Chain of EGFR (P00533 25-1210): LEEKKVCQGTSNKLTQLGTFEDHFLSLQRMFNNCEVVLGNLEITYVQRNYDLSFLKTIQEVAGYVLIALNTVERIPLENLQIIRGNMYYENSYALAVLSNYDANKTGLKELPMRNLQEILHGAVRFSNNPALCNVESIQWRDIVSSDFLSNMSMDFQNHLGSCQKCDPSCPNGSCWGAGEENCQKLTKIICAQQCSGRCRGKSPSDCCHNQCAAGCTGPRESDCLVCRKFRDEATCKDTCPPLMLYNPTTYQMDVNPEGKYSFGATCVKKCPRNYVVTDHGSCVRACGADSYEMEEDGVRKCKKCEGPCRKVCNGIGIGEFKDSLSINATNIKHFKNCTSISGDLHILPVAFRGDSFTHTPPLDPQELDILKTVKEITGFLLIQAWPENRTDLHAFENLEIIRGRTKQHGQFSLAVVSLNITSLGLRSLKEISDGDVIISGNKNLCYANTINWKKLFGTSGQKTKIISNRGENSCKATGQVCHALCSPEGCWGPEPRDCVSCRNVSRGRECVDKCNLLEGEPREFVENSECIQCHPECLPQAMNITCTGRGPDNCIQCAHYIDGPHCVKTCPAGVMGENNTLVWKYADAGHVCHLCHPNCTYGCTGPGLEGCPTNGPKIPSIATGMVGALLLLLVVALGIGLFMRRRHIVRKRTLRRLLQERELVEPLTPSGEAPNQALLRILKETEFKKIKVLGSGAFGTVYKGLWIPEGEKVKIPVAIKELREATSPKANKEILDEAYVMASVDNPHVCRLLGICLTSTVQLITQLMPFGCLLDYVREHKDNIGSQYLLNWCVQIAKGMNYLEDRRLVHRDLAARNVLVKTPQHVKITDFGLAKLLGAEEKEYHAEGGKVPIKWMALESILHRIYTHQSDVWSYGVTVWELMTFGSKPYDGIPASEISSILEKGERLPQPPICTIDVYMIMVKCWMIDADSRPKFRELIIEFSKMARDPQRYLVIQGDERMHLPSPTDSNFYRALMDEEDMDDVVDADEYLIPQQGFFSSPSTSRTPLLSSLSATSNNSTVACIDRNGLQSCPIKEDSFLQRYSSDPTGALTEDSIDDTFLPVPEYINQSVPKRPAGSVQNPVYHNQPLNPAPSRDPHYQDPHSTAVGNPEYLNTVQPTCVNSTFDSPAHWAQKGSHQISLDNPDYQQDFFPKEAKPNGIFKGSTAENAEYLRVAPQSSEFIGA

ERBB2 = ERBB2 (Homo sapiens, UniProt P04626); test: scanMAX binding POC, ERBB2; details: 1 μM
Chain of ERBB2 (P04626 23-1255): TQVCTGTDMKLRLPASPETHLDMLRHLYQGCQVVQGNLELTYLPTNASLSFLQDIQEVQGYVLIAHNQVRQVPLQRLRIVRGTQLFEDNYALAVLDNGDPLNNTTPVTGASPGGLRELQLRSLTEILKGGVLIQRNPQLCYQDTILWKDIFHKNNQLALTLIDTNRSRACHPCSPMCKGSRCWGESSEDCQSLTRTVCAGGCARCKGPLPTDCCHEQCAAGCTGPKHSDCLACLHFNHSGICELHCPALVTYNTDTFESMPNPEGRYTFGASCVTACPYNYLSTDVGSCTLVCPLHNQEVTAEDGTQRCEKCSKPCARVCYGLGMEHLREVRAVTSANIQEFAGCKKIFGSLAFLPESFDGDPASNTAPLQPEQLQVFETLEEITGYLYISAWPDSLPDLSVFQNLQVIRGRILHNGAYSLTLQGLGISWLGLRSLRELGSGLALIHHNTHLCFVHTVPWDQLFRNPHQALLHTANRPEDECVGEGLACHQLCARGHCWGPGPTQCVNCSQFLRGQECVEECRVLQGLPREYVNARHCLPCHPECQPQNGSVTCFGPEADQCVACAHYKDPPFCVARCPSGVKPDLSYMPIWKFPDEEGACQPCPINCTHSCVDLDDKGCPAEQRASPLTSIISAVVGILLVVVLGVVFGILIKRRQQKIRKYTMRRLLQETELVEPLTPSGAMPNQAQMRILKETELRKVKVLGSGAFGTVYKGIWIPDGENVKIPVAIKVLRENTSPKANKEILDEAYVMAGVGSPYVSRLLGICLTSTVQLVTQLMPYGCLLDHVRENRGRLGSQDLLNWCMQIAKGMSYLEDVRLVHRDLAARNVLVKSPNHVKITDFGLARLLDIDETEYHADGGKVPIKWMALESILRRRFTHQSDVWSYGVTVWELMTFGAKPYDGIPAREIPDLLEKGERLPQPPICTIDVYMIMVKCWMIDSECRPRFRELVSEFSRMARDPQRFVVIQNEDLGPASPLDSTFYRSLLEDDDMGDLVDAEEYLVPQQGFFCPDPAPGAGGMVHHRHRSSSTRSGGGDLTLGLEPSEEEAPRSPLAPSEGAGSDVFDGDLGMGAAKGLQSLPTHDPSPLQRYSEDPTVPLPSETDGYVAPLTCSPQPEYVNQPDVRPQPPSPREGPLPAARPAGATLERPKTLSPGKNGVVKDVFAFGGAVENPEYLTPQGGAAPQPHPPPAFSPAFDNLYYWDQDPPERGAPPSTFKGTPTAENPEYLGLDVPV

[2] = tested on: 468 kinases/kinase domains; details: scanMAX at 1 μM; for selectivity: category by number of off-targets
Procedure: The compounds were diluted directly into the assays such that the final concentration of DMSO was 0.9%. No enzyme purification steps were performed on the protein extracts before adding them to the reaction mixture, and the protein extracts were diluted 10,000-fold in the final reaction mixture (the final DNA-tagged enzyme concentration was less than 0.1 nM). Binding assay mixtures were incubated at 25 °C with shaking for 1 h. […] The concentration of wild-type or mutant BTK in the eluates was then determined using quantitative PCR.

BTK [3] = details: wild-type BTK; average of literature values; read-out: average published Kd for BTK; cited from earlier work
BTK [4] = details: cited from earlier work
[5] = tested on: 12 human primary cell systems; test: BioMAP Diversity PLUS Panel; type: cell-based; details: for number of biological effects (biomarkers modulated) / number of effects in a non-B cell (non-BT) model: 1 μM; for immunomodulatory activities / tissue remodeling activities / inflammation-related activities / hemostasis/angiogenesis-related activities: biomarker level relative to vehicle control: ↑ increase, ↓ decrease; for inflammation-related activities: ↓↑ both; for hemostasis/angiogenesis-related activities: TF in the 3C model; for antiproliferative effects: cell types affected, concentrations (nM) in brackets; for detectable cytotoxicity: concentrations (nM): ibrutinib 3300, 1100, 370, 120, pirtobrutinib and fenebrutinib 1000, 330, 110, 37, spebrutinib 370, 120, 41, 14
Procedure: BioMAP Diversity PLUS Panel (Eurofins Discovery, St. Charles, MO) is composed of 12 human primary cell cultures or cocultures. The systems and stimuli have been described previously. Adherent cells were added to 96-well plates, allowed to reach confluence, and incubated for 1 h with the indicated BTK inhibitor or assay control, all dissolved in 0.1% DMSO. The cells were then stimulated with cytokines, agonists, or growth factors and cultured for a minimum of 24 h at 37 °C in 5% CO2. Assay controls included DMSO-only (vehicle control), nonstimulated conditions (negative control), and a positive control test agent (colchicine at 1 μM).
Cell proliferation and viability were measured using 0.1% sulforhodamine B (SRB, Sigma–Aldrich) after fixation with 10% TCA, and reading wells at 560 nm for adherent cells, and using alamarBlue reduction (Bio-Rad) for suspension cells. These biomarkers were previously described by Shah and colleagues.
For each biomarker, the value obtained from the BTK inhibitor-treated samples was divided by the average of 8 DMSO-only controls from the same plate, yielding a ratio that was then transformed to the log10 scale. […] For cytotoxicity, we considered a decrease in the SRB readout greater than 50% (<−0.3 on the log10 scale) significant and excluded from the analysis the corresponding concentrations. The acceptance criteria and quality assurance of the BioMAP experiments have been previously described.

BTK C481S in TMD8 cells = details: IC50 measured in TMD8 cells (not in vitro); read-out: average published IC50 for BTK C481S; cited from earlier work
[6] = ATP-independent in vitro binding, 25 °C, read-out: Kd for wild-type BTK
[7] = category by Kd for wild-type BTK, read-out: potency for BTK
[8] = wild-type BTK, average of N replicates, each in technical duplicate, read-out: average in-house Kd for BTK
[9] = ATP-independent in vitro binding, 25 °C, read-out: Kd for BTK C481S
[10] = N = 1, technical duplicate, read-out: average in-house Kd for BTK C481S
[11] = category by Kd for BTK C481S, read-out: potency for BTK C481S

T1 sequence (Q06187 whole entry): as the sequence (Q06187 whole entry C481S) above, with S481C counted along it

SMILES | Kd (wild-type BTK; [6]) [nM] | Kd (wild-type BTK; [7]) [nM] | Kd (wild-type BTK; [8]) [nM] | Kd (BTK C481S; [9]) [nM] | Kd (BTK C481S; [10]) [nM] | Kd (BTK C481S; [11]) [nM] | BTK binding POC (BTK [1]) | BMX binding POC (BMX) | BLK binding POC (BLK) | EGFR binding POC (EGFR) | ERBB2 binding POC (ERBB2) | selectivity [2] | Kd (BTK [3]) [nM] | IC50 (BTK [4]) [nM] | immunomodulatory activities [5] | tissue remodeling activities [5] | inflammation-related activities [5] | hemostasis/angiogenesis-related activities [5] | antiproliferative effects [5] | detectable cytotoxicity [5] | other results
C=CC(=O)N1CCC[C@@H](c2ccc(C(N)=O)c3[nH]ccc23)C1 [Elsubrutinib] | 2.9 | 1 to 10 | 2.9 | 460 | 460 | 100 to 1000 | 0.1% of control | 20% of control | 15% of control | 90% of control | 73% of control | high (high (≤11 off-targets)) | 3.1 | 180 |  |  |  |  |  |  | fold difference between in-house and published Kd's (wild-type BTK; wild-type BTK): 1.1 fold
C[C@H]1CN(C2COC2)CCN1c1ccc(Nc2cc(-c3ccnc(N4CCn5c(cc6c5CC(C)(C)C6)C4=O)c3CO)cn(C)c2=O)nc1 [Fenebrutinib] |  |  |  |  |  |  |  |  | 60% of control | 95% of control | 97% of control |  |  | 2.3 | ↓ sIgG, sIL-2, sIL-6 | none | ↓ sTNFα, IL-1α | ↑ TF | B cells (1000, 330, 110, 37) | none | number of biological effects (biomarkers modulated) [5]: 8; number of effects in a non-B cell (non-BT) model [5]: 3; hemostasis/angiogenesis-related activities ([5]; listed as fenebrutinib): increase in the production of Tissue Factor (TF); IC50 (BTK C481S in TMD8 cells): 7.8 nM
O=C(c1ccc(Oc2ccccc2)cc1Cl)c1c[nH]c2ncnc(N[C@@H]3CC[C@@H](CO)OC3)c12 [Nemtabrutinib] |  |  |  |  |  |  | 0.6% of control | 8.5% of control | 0.3% of control | 0% of control | 0% of control |  | 46 | 0.85 |  |  |  |  |  |  | off-target hits ([2]; POC <35): 97
COc1ccc(F)cc1C(=O)NCc1ccc(-c2nn([C@@H](C)C(F)(F)F)c(N)c2C(N)=O)cc1 [Pirtobrutinib] | 0.81 | < 1 | 0.81 | 0.89 | 0.89 | < 1 | 0% of control | 51% of control | 69% of control | 0.5% of control | 5.9% of control | moderate (moderate (12–50 off-targets)) | 0.9 | 3.2 | ↓ sIL-17A, sIL-17F, sIL-2, sIL-6 | none | ↓ sTNFα, IL-1α | none | B cells (1000, 330, 110, 37) | none | fold difference between in-house and published Kd's (wild-type BTK; wild-type BTK): 1.1 fold; fold difference between in-house and published Kd (BTK C481S; BTK C481S): 2.9 fold; number of biological effects (biomarkers modulated) [5]: 7; number of effects in a non-B cell (non-BT) model [5]: 1; IC50 (BTK C481S in TMD8 cells): 4 nM
C=CC(=O)Nc1cccc(Oc2nc(Nc3ccc(N4CCN(C)CC4)cc3)nc3ccoc23)c1 [Poseltinib] | 1.5 | 1 to 10 | 1.5 | > 1000 | > 1000 | > 1000 | 0.1% of control | 12% of control | 0.85% of control | 1.2% of control | 8.7% of control | moderate (moderate (12–50 off-targets)) |  | 3 |  |  |  |  |  |  | Kd for BTK C481S (BTK C481S; ATP-independent in vitro binding, 25 °C): did not demonstrate any binding at the concentrations tested
C=CC(=O)Nc1cccc(Nc2nc(Nc3ccc(OCCOC)cc3)ncc2F)c1 [Spebrutinib] |  |  |  |  |  |  | 0% of control | 10% of control | […] | 49% of control | 57% of control |  |  | […] | […] | ↓ PAI-1, Col-I, Col-IV | ↓ sTNFα | none | […] | none | number of biological effects ([5]; 370 nM): […]; number of effects not in the BT model ([5]; 370 nM): […]; tissue remodeling activities ([5]; listed as spebrutinib): decreased the activity of tissue remodeling biomarkers; antiproliferative effects ([5]; listed as spebrutinib): […]

From PMC11997881, “Comprehensive Characterization of Bruton’s Tyrosine Kinase Inhibitor Specificity, Potency, and Biological Effects: Insights into Covalent and Noncovalent Mechanistic Signatures” (ACS Pharmacology & Translational Science, 2025)
